Laboratory results: publication PMC3480348, “Structure and Activity Analysis of Inauhzin Analogs as Novel Antitumor Compounds That Induce p53 and Inhibit Cell Growth” (PLoS ONE, 2012)
Entries after “also recorded” stand apart in the source; their conditions may differ. Read-outs that look alike come from different tables or passages of the source. Blank lines part the entries; values can stand above or below the molecule they belong to.

Legend:
[1] = tested on: p53 level in H460 and HCT116^+/+ cells; assay: p53 induction by immunoblotting (IB), statement does not separate the cell lines; format: cell-based, human; details: 18 hrs, 0.5, 2, 10 µM
Excerpt: (A–B) Initial Inauhzin analogs were purchased and tested the activity on H460 and HCT116^+/+ by immunoblotting (IB). […]

[2] = tested on: p53 level in HCT116^+/+ cells; assay: p53 induction by immunoblotting (IB) in HCT116^+/+ cells; format: cell-based, human; details: 2 µM, 18 hrs; IB normalized to GAPDH, compared to 2 µM INZ
Protocol: (§1) EC90 values were calculated from the EC50 and Hill slope by a web-based calculator: http://www.graphpad.com/quickcalcs/Ecanything1.cfm.

p53 level in H460 cells = assay: p53 induction by immunoblotting (IB) in H460 cells; format: cell-based, human; details: 2 µM, 18 hrs; IB normalized to GAPDH, compared to 2 µM INZ
HCT116^+/+ cells = assay: 3-day WST-8 cell growth inhibition assay, HCT116^+/+; format: cell-based, human; details: for EC50: HCT-116, 72 h WST-8, average of triplicates, highest concentration 50 µM, read-out: EC50, cell growth inhibition, HCT116^+/+ p53 wild type; for EC90 fold lower than that for INZ, HCT116^+/+: statement covers H460 and HCT116^+/+ together; for EC90: read-out: EC90, cell growth inhibition, HCT116^+/+ p53 wild type
Protocol: as §1

H460 cells [3] = assay: 3-day WST-8 cell growth inhibition assay, H460; format: cell-based, human; details: for EC90: read-out: EC90, cell growth inhibition, H460 p53 wild type; for EC90 fold lower than that for INZ, H460: statement covers H460 and HCT116^+/+ together
Protocol: as §1

H1299 cells = assay: 3-day WST-8 cell growth inhibition assay, H1299 (p53 null); format: cell-based, human; details: for EC50 / EC90: Homo sapiens; for EC50: NCI-H1299, 72 h WST-8, average of triplicates, highest concentration 100 µM; for effect on p53-null H1299 cells compared with p53-containing cells: in vitro cytotoxicity; for EC50 on H1299 fold higher than on H460 cells: p53-null H1299 vs p53-containing H460; for EC90: NCI-H1299, calculated from EC50 and Hill slope
Protocol: as §1

H460 cells [4] = assay: 3-day WST-8 cell growth inhibition assay, H460; format: cell-based, human; details: for EC50: Homo sapiens, NCI-H460, 72 h WST-8, average of triplicates, highest concentration 50 µM, read-out: EC50, cell growth inhibition, H460 p53 wild type
HCT116^−/− cells [5] = assay: 3-day WST-8 cell growth inhibition assay, HCT116^−/− (p53 null); format: cell-based, human; details: for EC50: Homo sapiens, HCT-116, 72 h WST-8, average of triplicates, highest concentration 100 µM; for effect on p53-null HCT116^−/− cells compared with p53-containing cells: in vitro cytotoxicity
HCT116^−/− cells [6] = assay: as above; format: cell-based; details: Homo sapiens, HCT-116, calculated from EC50 and Hill slope
Protocol: as §1

[7] = Homo sapiens, NCI-H460, calculated from EC50 and Hill slope (GraphPad web calculator)
[8] = Homo sapiens, HCT-116, calculated from EC50 and Hill slope

SMILES: CCC(Sc1nnc2c(n1)[nH]c1ccccc12)C(=O)N1c2ccccc2Sc2ccc(Cl)cc21 (stereo not shown) [Compound 6, 2-((5H-[1,2,4]triazino[5,6-b]indol-3-yl)thio)-1-(2-chloro-10H-phenothiazin-10-yl)butan-1-one]
p53 induction / activation by synthetic analogs [1]: remained active in p53 induction
p53 induction in HCT116^+/+ cells [2]: < 50%
p53 induction in H460 cells (p53 level in H460 cells): < 50%

SMILES: CCC(Sc1nnc2c(n1)[nH]c1ccccc12)C(=O)N1c2ccccc2Cc2ccccc21 (stereo not shown) [Compound 8, 2-((5H-[1,2,4]triazino[5,6-b]indol-3-yl)thio)-1-(acridin-10(9H)-yl)butan-1-one]
fold higher potency than INZ in growth inhibition of HCT116^+/+ cells (HCT116^+/+ cells; EC50 compared with INZ): more than 2 fold
EC50 (HCT116^+/+ cells; Homo sapiens): 1.3 µM
EC90 fold lower than that for INZ, HCT116^+/+ (HCT116^+/+ cells): 3–10 fold
p53 induction / activation by synthetic analogs [1]: drastically induced p53 at 0.5 µM; also recorded: greater potentcy than compound 1; also recorded: more potent in p53 activation than their parental compound INZ
EC90 (H460 cells [3]; [7]): 3.5 to 10 µM
EC90 fold lower than that for INZ, H460 (H460 cells [3]): 3–10 fold
EC50 (H1299 cells): 10.4 µM
effect on p53-null H1299 cells compared with p53-containing cells (H1299 cells): much less effective
EC50 on H1299 fold higher than on H460 cells (H1299 cells): 3–15 fold
fold higher potency than INZ in growth inhibition of H460 cells (H460 cells [4]; EC50 compared with INZ): more than 2 fold
EC50 (H460 cells [4]): 2.7 µM
EC50 (HCT116^−/− cells [5]): 5.9 ± 1 µM
effect on p53-null HCT116^−/− cells compared with p53-containing cells (HCT116^−/− cells [5]): much less effective

SMILES: CCC(Sc1nnc2c(n1)[nH]c1ccccc12)C(=O)N1c2ccccc2Oc2ccccc21 (stereo not shown) [Compound 9, 2-((5H-[1,2,4]triazino[5,6-b]indol-3-yl)thio)-1-(10H-phenoxazin-10-yl)butan-1-one]
p53 induction / activation by synthetic analogs [1]: inactive

SMILES: CCCCC(Sc1nnc2c(n1)[nH]c1ccccc12)C(=O)N1c2ccccc2Sc2ccccc21 (stereo not shown) [Compound 14, 2-((5H-[1,2,4]triazino[5,6-b]indol-3-yl)thio)-1-(10H-phenothiazin-10-yl)hexan-1-one]
p53 induction / activation by synthetic analogs [1]: lower activity for p53 induction

SMILES: CCC(Sc1nnc2c(n1)[nH]c1cc(F)ccc12)C(=O)N1c2ccccc2Sc2ccccc21 (stereo not shown) [Compound 15, 2-((7-fluoro-5H-[1,2,4]triazino[5,6-b]indol-3-yl)thio)-1-(10H-phenothiazin-10-yl)butan-1-one]
p53 induction / activation by synthetic analogs [1]: inactive

SMILES: CCC(Sc1nnc2c(n1)[nH]c1cc(OC)ccc12)C(=O)N1c2ccccc2Sc2ccccc21 (stereo not shown) [Compound 18, 2-((7-methoxy-5H-[1,2,4]triazino[5,6-b]indol-3-yl)thio)-1-(10H-phenothiazin-10-yl)butan-1-one]
p53 induction / activation by synthetic analogs [1]: marked decrease in p53 activation

SMILES: CCC(Sc1nnc2c(n1)[nH]c1cc(C)ccc12)C(=O)N1c2ccccc2Sc2ccccc21 (stereo not shown) [Compound 19, 2-((7-methyl-5H-[1,2,4]triazino[5,6-b]indol-3-yl)thio)-1-(10H-phenothiazin-10-yl)butan-1-one]
EC90 (HCT116^+/+ cells; [8]): 29.7 µM
EC50 (HCT116^+/+ cells; Homo sapiens): 2.2 ± 0.2 µM
EC90 (HCT116^+/+ cells; calculated from EC50 and Hill slope): 20 to 30 µM
p53 induction / activation by synthetic analogs [1]: significant effect on p53 induction compared to INZ at 0.5 µM
EC90 (H460 cells [3]; [7]): 26.5 µM
EC90 (H460 cells [3]; calculated from EC50 and Hill slope (GraphPad web calculator)): 20 to 30 µM
EC90 fold lower than that for INZ, H460 (H460 cells [3]): 1.5 fold
EC90 (H1299 cells): 173 µM
EC50 (H1299 cells): 40.2 ± 7.4 µM
effect on p53-null H1299 cells compared with p53-containing cells (H1299 cells): much less effective
EC50 (H460 cells [4]): 6 ± 0.6 µM
EC90 (HCT116^−/− cells [6]): > 1000 µM
EC50 (HCT116^−/− cells [5]): 44.2 ± 10.3 µM
effect on p53-null HCT116^−/− cells compared with p53-containing cells (HCT116^−/− cells [5]): much less effective

SMILES: CCC(Sc1nnc2c3ccccc3n(C(=O)c3ccccc3)c2n1)C(=O)N1c2ccccc2Sc2ccccc21 (stereo not shown) [Compound 21, 2-((5-benzoyl-5H-[1,2,4]triazino[5,6-b]indol-3-yl)thio)-1-(10H-phenothiazin-10-yl)butan-1-one]
EC90 (HCT116^+/+ cells; [8]): 21.9 µM
EC50 (HCT116^+/+ cells; Homo sapiens): 2.1 ± 1 µM
EC90 (H460 cells [3]; [7]): 9.6 µM
EC90 (H1299 cells): 82.3 µM
EC50 (H1299 cells): 12.6 ± 1.4 µM
effect on p53-null H1299 cells compared with p53-containing cells (H1299 cells): much less effective
EC50 (H460 cells [4]): 4.3 ± 0.3 µM
EC90 (HCT116^−/− cells [6]): > 1000 µM
EC50 (HCT116^−/− cells [5]): 28.2 ± 1.4 µM
effect on p53-null HCT116^−/− cells compared with p53-containing cells (HCT116^−/− cells [5]): much less effective

SMILES: CCC(Sc1nnc2c3ccccc3n(C(=O)c3cccnc3)c2n1)C(=O)N1c2ccccc2Sc2ccccc21 (stereo not shown) [Compound 22, 2-((5-nicotinoyl-5H-[1,2,4]triazino[5,6-b]indol-3-yl)thio)-1-(10H-phenothiazin-10-yl)butan-1-one]
EC90 (H460 cells [3]; [7]): 20.5 µM
EC50 (H460 cells [4]): 4.9 ± 1 µM

SMILES: CCOC(=O)Cn1c2ccccc2c2nnc(SC(CC)C(=O)N3c4ccccc4Sc4ccccc43)nc21 (stereo not shown) [Compound 28, Ethyl 2-(3-((1-oxo-1-(10H-phenothiazin-10-yl)butan-2-yl)thio)-5H-[1,2,4]triazino[5,6-b]indol-5-yl)acetate]
p53 induction / activation by synthetic analogs [1]: essentially inactive

SMILES: CCC(Sc1nnc2c3ccccc3n(CC(=O)O)c2n1)C(=O)N1c2ccccc2Sc2ccccc21 (stereo not shown) [Compound 29, 2-(3-((1-oxo-1-(10H-phenothiazin-10-yl)butan-2-yl)thio)-5H-[1,2,4]triazino[5,6-b]indol-5-yl)acetic acid]
p53 induction / activation by synthetic analogs [1]: essentially inactive

SMILES: C#CCCn1c2ccccc2c2nnc(SC(CC)C(=O)N3c4ccccc4Sc4ccccc43)nc21 (stereo not shown) [Compound 32, 2-((5(but-3-yn-1-yl)-5H-[1,2,4]triazino[5,6-b]indol-3-yl)thiol)-1-(10H-phenothiazin-10-yl)butan-1-one]
p53 induction / activation by synthetic analogs [1]: significant decrease in activity

SMILES: CCC(Sc1nnc2c3ccccc3n(CC(=O)c3ccccc3)c2n1)C(=O)N1c2ccccc2Sc2ccccc21 (stereo not shown) [Compound 33, 2-((5-(2-oxo-2-phenylethyl)-5H-[1,2,4]triazino[5,6-b]indol-3-yl)thiol)-1-(10H-phenothiazin-10-yl)butan-1-one]
p53 induction / activation by synthetic analogs [1]: significant decrease in activity

Second part, led by results:

EC90 (H460 cells [3]; [7]): 22.6 µM
EC50 (H460 cells [4]): 6.7 ± 0.7 µM
SMILES: CCCCCC(=O)C1(SC(CC)C(=O)N2c3ccccc3Sc3ccccc32)N=c2[nH]c3ccccc3c2=NN1 (stereo not shown) [Compound 23, 1-(3-((1-oxo-1-(10H-phenothiazin-10-yl)butan-2-yl)thio)-5H-[1,2,4]triazino[5,6-b]indol-3-yl)hexan-1-one]

EC90 (H460 cells [3]; [7]): 14.5 µM
EC50 (H460 cells [4]): 5.7 ± 0.3 µM
SMILES: C=CCCC(=O)n1c2ccccc2c2nnc(SC(CC)C(=O)N3c4ccccc4Sc4ccccc43)nc21 (stereo not shown) [Compound 24, 1-(3-((1-oxo-1-(10H-phenothiazin-10-yl)butan-2-yl)thio)-5H-[1,2, 4]triazino[5,6-b]indol-5-yl)pent-4-en-1-one]

EC90 (H460 cells [3]; [7]): 38.2 µM
EC50 (H460 cells [4]): 16 ± 0.9 µM
SMILES: CCC(Sc1nnc2c3ccccc3n(C(=O)CCCCBr)c2n1)C(=O)N1c2ccccc2Sc2ccccc21 (stereo not shown) [Compound 26, 5-bromo-1-(3-((1-oxo-1-(10H-phenothiazin-10-yl)butan-2-yl)thio)-5H-[1,2, 4]triazino[5,6-b]indol-5-yl)pentan-1-one]

EC90 (H460 cells [3]; [7]): 9 µM
EC50 (H460 cells [4]): 3.4 ± 0.3 µM
SMILES: CCOC(=O)CCCC(=O)n1c2ccccc2c2nnc(SC(CC)C(=O)N3c4ccccc4Sc4ccccc43)nc21 (stereo not shown) [Compound 27, Ethyl 5-oxo-5-(3-((1-oxo-1-(10H-phenothiazin-10-yl)butan-2-yl)thio)-5H-[1,2,4]triazino[5,6-b]indol-5-yl)pentanoate]

EC90 (HCT116^+/+ cells; [8]): 4.6 µM
EC50 (HCT116^+/+ cells; Homo sapiens): 0.8 ± 0.5 µM
EC90 fold lower than that for INZ, HCT116^+/+ (HCT116^+/+ cells): 5 fold
EC90 (H460 cells [3]; [7]): ~7.7 µM
EC90 fold lower than that for INZ, H460 (H460 cells [3]): 5 fold
EC50 (H1299 cells): 16.6 µM
EC50 on H1299 fold higher than on H460 cells (H1299 cells): 3–15 fold
EC50 (H460 cells [4]): 3.5 ± 0.4 µM
EC50 (HCT116^−/− cells [5]): 7.8 ± 3.4 µM
SMILES: CCC(Sc1nnc2c3ccccc3n(CCO)c2n1)C(=O)N1c2ccccc2Sc2ccccc21 (stereo not shown) [Compound 30, 2-((5(2-hydoxyethyl)-5H-[1,2,4]triazino[5,6-b]indol-5-yl)thiol)-1-(10H-phenothiazin-10-yl)butan-1-one]
p53 induction / activation by synthetic analogs [1]: comparable to compound 8; also recorded: more potent in p53 activation than their parental compound INZ
effect on p53-null H1299 cells compared with p53-containing cells (H1299 cells): much less effective
effect on p53-null HCT116^−/− cells compared with p53-containing cells (HCT116^−/− cells [5]): much less effective

EC90 (HCT116^+/+ cells; [8]): 30.5 µM
EC50 (HCT116^+/+ cells; Homo sapiens): 2.7 ± 0.3 µM
EC90 (H460 cells [3]; [7]): 39.9 µM
EC90 fold greater in p53-null cells than in p53-containing cell lines (H1299 cells; H1299, HCT116^−/− vs H460, HCT116^+/+): 5–7 fold
EC90 (H1299 cells): 217 µM
EC50 (H1299 cells): 11.6 ± 3.4 µM
EC50 (H460 cells [4]): 7.7 ± 1.1 µM
EC90 (HCT116^−/− cells [6]): 213 µM
EC50 (HCT116^−/− cells [5]): 13.3 ± 2.4 µM
SMILES: CCC(Sc1nnc2c(n1)[nH]c1ccccc12)C(=O)N1c2ccccc2Sc2ccccc21 (stereo not shown) [INZ, 2-((5H-[1,2,4]triazino[5,6-b]indole-3yl)thio)-1-(10H-phenothiazin-10-yl)butan-1-one]
